Experimental data from patent US7632807B2, “Cyclosporin alkynes and their utility as pharmaceutical agents” (Albany Molecular Research, Inc., priority 2004, dated 2009).
≈ marks a conversion by molar mass, not a printed value. Entries after “also recorded” stand apart in the source; their conditions may differ.

Key:
[1] = literature value (Rich et al. 1990); cited from earlier work
[2] = test system: concanavalin A-stimulated murine splenocytes; experiment: Concanavalin A (ConA)-stimulated murine splenocyte assay; format: cell-based, mouse (BALB/c)
Protocol: Concanavalin A—Stimulated Splenocyte Assay
Male BALB/c mice, at 5 to 7 weeks of age, were sacrificed by CO2 inhalation. Spleens were removed and dissociated by pushing through a nylon cell strainer. The splenocytes were washed in RPMI 1640/5% fetal calf serum (FCS) and pelleted at 400×g. Red blood cells were then lysed by resuspending the cell pellet in ACK lysis buffer (150 mM NH4Cl, 1 mM KHCO3, 0.1 mM EDTA, 3 mL per spleen) for 10 min at room temperature. After pelleting at 400×g, the cells were washed by resuspending in RPMI 1640/5% FCS and repelleting. The cell pellet was resuspended in RPMI 1640/5% FCS and again passed through a cell strainer to remove cell aggregates. The cells were then counted and adjusted to 2×10^6 cells/ml in RPMI 1640/10% FCS/[…] 2-mercaptoethanol. Cell viability was assessed by Trypan blue staining. […] The cells were cultured in a 37° C. CO2 incubator for 2 days and then pulsed with 1 μCi of [^3H]thymidine for 6 hours. Cells were harvested onto filtermats with a TomTec 96 well plate harvester and lysed with H2O. The filtermat and scintillation fluid were sealed in a plastic sleeve. [^3H]thymidine incorporation was measured with a Wallac Trilux plate counter. Initial screens were done at a fixed value of 100 ng/ml test compound. IC50s were calculated from 7 point concentration-response curves using graphPad software.

Structure (SMILES)	relative immunosuppressive activity, compared to cyclosporin A [1] [%]	immunosuppressive potency compared to cyclosporin A ([2]; FIG. 1, ConA-stimulated murine splenocyte assay)	IC50 ([2]; novel cyclosporin alkyne analogue, ConA-stimulated BALB/c splenocytes, [3H]thymidine incorporation, 7 point concentration-response curves) [µg/mL]
CC#CC[C@@H](C)[C@@H](O)[C@H]1C(=O)N[C@@H](CC)C(=O)N(C)CC(=O)N(C)[C@@H](CC(C)C)C(=O)N[C@@H](C(C)C)C(=O)N(C)[C@@H](CC(C)C)C(=O)N[C@@H](C)C(=O)N[C@H](C)C(=O)N(C)[C@@H](CC(C)C)C(=O)N(C)[C@@H](CC(C)C)C(=O)N(C)[C@@H](C(C)C)C(=O)N1C [known cyclosporin alkyne]	10	–	–
C#CC#CC[C@@H](C)[C@@H](O)[C@H]1C(=O)N[C@@H](CC)C(=O)N(C)CC(=O)N(C)[C@@H](CC(C)C)C(=O)N[C@@H](C(C)C)C(=O)N(C)[C@@H](CC(C)C)C(=O)N[C@@H](C)C(=O)N[C@H](C)C(=O)N(C)[C@@H](CC(C)C)C(=O)N(C)[C@@H](CC(C)C)C(=O)N(C)[C@@H](C(C)C)C(=O)N1C [Example 25, cyclosporine diyne]	–	enhanced or similar potency in immunosuppression; also recorded: two times more potent over cyclosporin A	0.012 (≈ 9.91 nM)
